# Measured values as given in patent publication US20070072209A1, “Methods of treatment and diagnosis of Kaposi's sarcoma (KS) and KS related diseases” (priority 2005, published 2007).
# Tests used:
# Type in all cases: cell-based, human
# Neuritin mRNA = test: qPCR of target mRNA after siRNA transfection: Neuritin; settings: relative to controls; RNA harvested day 3 post-transfection
# Procedure: (§1) Quantitative PCR. Real-time PCR was performed on an ABI 7700 sequence detection system (Applied Biosystems). To normalize gene expression between mock and infected samples, 18S RNA, beta-Actin and GAPDH were assessed. […] Total RNA was treated with Dnase I (Dnase Free:Ambion) before synthesis of cDNA by random hexamers and Superscript II (Invitrogen). […] Relative expression values between mock and infected samples were calculated by the comparative CT Method as previously described (Moses et al, 2002). […]
# (§2) siRNA treatment and Focus Inhibition Assay. siRNA oligonucleotides were designed using the oligoengine design tool (Oligoengine, Seattle, Wash.). […] Cells were monitored for up to 14 days for evidence of foci-formation, as described for the PMO-AS assays. […]
# Specifically, FIGS. 6A-D show, according to particular aspects of the present invention, small interfering RNA (siRNA) inhibition of RDC1, Neuritin, INSR and IGFBP2. […] Cells were treated with siRNA and monitored for up to 14 days. To calculate mRNA degradation, mRNA was isolated and qPCR was performed. mRNA levels were calculated relative to a FITC-tagged control siRNA (100%). […]
# KSHV-infected DMVEC = test: siRNA treatment and focus inhibition assay; settings: observed up to 14 days post-transfection
# Procedure: siRNA treatment and Focus Inhibition Assay. siRNA oligonucleotides were designed using the oligoengine design tool (Oligoengine, Seattle, Wash.). RNA olionucleotides were purchased from Oligoengine or Dharmacon Inc. (Lafayette, Colo.). […] The twenty-one nucleotide RNA oligos were resuspended according to manufacturer's instructions to obtain either 20 microM or 50 microM solutions and delivered to DMVEC by transfection. For transfection, cells were seeded into 35 mm plates for overnight incubation, and transfections were performed at approximately 80% confluence according to published methods. Briefly, from a 20 microM siRNA stock solution, 12 microL of siRNA was added (240 pmol) to 200 microL OPTI-MEM medium (Gibco). After a 10 minute incubation, 12 microL Oligofectamine (Invitrogen) diluted in 48 microL OPTI-MEM was mixed with the diluted siRNA and incubated for an addition 20 minutes. The complex was added dropwise to a […] containing 1 ml of complete endothelial growth medium. Cells were monitored for up to 14 days for evidence of foci-formation, as described for the PMO-AS assays. Control Cy3-Luciferase GL2 Duplex siRNA (Dharmacon) was used to monitor transient tranfection and the duration of siRNA expression in endothelial cells. Cy3 siRNA was visible for over 3 weeks post-transfection. […]
# RDC1 mRNA = test: qPCR of target mRNA after siRNA transfection: RDC1; settings: relative to FITC-tagged control siRNA or transfection reagent alone; KSHV-DMVEC
# Procedure: as §1, §2
# Specifically, FIGS. 6A-D show, according to particular aspects of the present invention, small interfering RNA (siRNA) inhibition of RDC1, Neuritin, INSR and IGFBP2. […] Cells were treated with siRNA and monitored for up to 14 days. To calculate mRNA degradation, mRNA was isolated and qPCR was performed. mRNA levels were calculated relative to a FITC-tagged control siRNA (100%).
Substance,reduction in Neuritin mRNA levels (Neuritin mRNA) [%],KSHV-induced focus formation / contact inhibition after siRNA (KSHV-infected DMVEC),reduction of RDC1 mRNA (RDC1 mRNA) [%]
"Neuritin siRNA: Neuritin siRNA, AAAGATATCTGATTAATTCCA (SEQ ID NO:42) (guide AAAGATATCTGATTAATTCCA; listed as DNA, chemistry not given here)",63,maintained contact-inhibited growth,–
"RDC1 siRNA #1: RDC1 siRNA giving the larger mRNA decrease; presumably RDC1-234, AACATGCCCAACAAAAGCGTC (guide AACATGCCCAACAAAAGCGTC; listed as DNA, chemistry not given here)",–,more stringent maintenance of contact inhibition,56
